Experimental data taken from ChEMBL document CHEMBL1136896, “Synthesis and biological evaluation of arylhydrazinocyanoacrylates and N-aryl pyrazolecarboxylates” (2009).

Tests used:
Assay type in all cases: functional
HL-60 [1] = test: Antitumor activity against human HL60 cells at 10 uM/L after 72 hrs by MTT assay; settings: HL-60, 72 h
Amaranthus retroflexus [2] = test: Herbicidal activity against Amaranthus retroflexus at 1.5 kg/hectare administered postemergence of first true leaf measured after 10 days; settings: post-emergence, 240 h
HL-60 [3] = test: Antitumor activity against human HL60 cells at 1000 uM/L after 72 hrs by MTT assay; settings: HL-60, 72 h
Digitaria sanguinalis [4] = test: Herbicidal activity against Digitaria sanguinalis at 1.5 kg/hectare administered postemergence of first true leaf measured after 10 days; settings: post-emergence, 240 h
Brassica napus [5] = test: Herbicidal activity against Brassica napus L. at 1.5 kg/hectare administered preemergence of first true leaf measured after 10 days; settings: pre-emergence, 240 h
Cladosporium cucumerinum = test: Fungicidal activity against Cladosporium cucumerinum assessed as inhibition of mycelium growth at 50 mg/L after 72 hrs
Mycosphaerella arachidis = test: Fungicidal activity against Cercospora arachidicola assessed as inhibition of mycelium growth at 50 mg/L after 72 hrs
Amaranthus retroflexus [6] = test: Herbicidal activity against Amaranthus retroflexus at 1.5 kg/hectare administered preemergence of first true leaf measured after 10 days; settings: pre-emergence, 240 h
Bel-7402 [7] = test: Antitumor activity against human Bel7402 cells at 100 uM/L after 72 hrs by MTT assay; settings: Bel-7402, 72 h
HL-60 [8] = test: Antitumor activity against human HL60 cells at 100 uM/L after 72 hrs by MTT assay; settings: HL-60, 72 h
[9] = test system: Botryosphaeria berengeriana; test: Fungicidal activity against Physalospora pyricola assessed as inhibition of mycelium growth at 50 mg/L after 72 hrs
Brassica napus [10] = test: Herbicidal activity against Brassica napus at 1.5 kg/hectare administered postemergence of first true leaf measured after 10 days; settings: post-emergence, 240 h
Cucumis sativus = test: Growth regulatory activity in cucumber assessed as root growth at 10 mg/L incubated in dark for 5 days
Alternaria solani = test: Fungicidal activity against Alternaria solani assessed as inhibition of mycelium growth at 50 mg/L after 72 hrs
HL-60 [11] = test: Antitumor activity against human HL60 cells at 1 uM/L after 72 hrs by MTT assay; settings: HL-60, 72 h
Bel-7402 [12] = test: Antitumor activity against human Bel7402 cells at 10 uM/L after 72 hrs by MTT assay; settings: Bel-7402, 72 h
Bel-7402 [13] = test: Antitumor activity against human Bel7402 cells at 1000 uM/L after 72 hrs by MTT assay; settings: Bel-7402, 72 h
Medicago sativa [14] = test: Herbicidal activity against Medicago sativa at 1.5 kg/hectare administered postemergence of first true leaf measured after 10 days; settings: post-emergence, 240 h
Bel-7402 [15] = test: Antitumor activity against human Bel7402 cells at 1 uM/L after 72 hrs by MTT assay; settings: Bel-7402, 72 h
Fusarium graminearum = test: Fungicidal activity against Gibberella zeae assessed as inhibition of mycelium growth at 50 mg/L after 72 hrs
Digitaria sanguinalis [16] = test: Herbicidal activity against Digitaria sanguinalis (L.) Scop. at 1.5 kg/hectare administered preemergence of first true leaf measured after 10 days; settings: pre-emergence, 240 h
Medicago sativa [17] = test: Herbicidal activity against Medicago sativa at 1.5 kg/hectare administered preemergence of first true leaf measured after 10 days; settings: pre-emergence, 240 h

| SMILES | inhibition at 10 µM (HL-60 [1]) [%] | inhibition at 1500 g/ha (Amaranthus retroflexus [2]) [%] | inhibition at 1000 µM (HL-60 [3]) [%] | inhibition at 1500 g/ha (Digitaria sanguinalis [4]) [%] | inhibition at 1500 g/ha (Brassica napus [5]) [%] | inhibition at 50 µg/mL (Cladosporium cucumerinum) [%] | inhibition at 50 µg/mL (Mycosphaerella arachidis) [%] | inhibition at 1500 g/ha (Amaranthus retroflexus [6]) [%] | inhibition at 100 µM (Bel-7402 [7]) [%] | inhibition at 100 µM (HL-60 [8]) [%] | inhibition at 50 µg/mL [9] [%] | inhibition at 1500 g/ha (Brassica napus [10]) [%] | Activity (Cucumis sativus) [%] | inhibition at 50 µg/mL (Alternaria solani) [%] | inhibition at 1 µM (HL-60 [11]) [%] | inhibition at 10 µM (Bel-7402 [12]) [%] | inhibition at 1000 µM (Bel-7402 [13]) [%] | inhibition at 1500 g/ha (Medicago sativa [14]) [%] | inhibition at 1 µM (Bel-7402 [15]) [%] | inhibition at 50 µg/mL (Fusarium graminearum) [%] | also measured |
| --- | --- | --- | --- | --- | --- | --- | --- | --- | --- | --- | --- | --- | --- | --- | --- | --- | --- | --- | --- | --- | --- |
| CCOCCOC(=O)/C(C#N)=C(/CC)NNc1cc(Cl)c(Cl)cc1Cl | 11.8 | 15.6 | 80.4 | 0 | 0 | 13.9 | 21.3 | 5.9 | 0 | 7.3 | 36 | 0 | -39 | 10 | 8.3 | 0 | 94.5 | 4.7 | 0 | 9.6 | inhibition at 1500 g/ha (Digitaria sanguinalis [16]): 3.8%; inhibition at 1500 g/ha (Medicago sativa [17]): 0% |
| CCOCCOC(=O)/C(C#N)=C(/CC)NNc1c(Cl)cccc1Cl | 35.9 | 22.7 | 80.4 | 0 | 5.3 | 0 | 24.4 | 8.8 | 54.6 | 72.4 | 24 | 11.1 | -6 | 10 | 4.3 | 17.1 | 79.8 | 2.3 | 11.5 | 0 | inhibition at 1500 g/ha (Digitaria sanguinalis [16]): 0%; inhibition at 1500 g/ha (Medicago sativa [17]): 0% |
| CCOCCOC(=O)/C(C#N)=C(\NNc1ccc(Cl)cc1Cl)C(C)C | 6 | 3.9 | 73.2 | 17.9 | 0 | 22.2 | 51.5 | 0 | 6.5 | 17.6 | 73.3 | 1.6 | -27.8 | 40 | 0 | 4.3 | 45.9 | 7.5 | 5.3 | 4.8 | inhibition at 1500 g/ha (Digitaria sanguinalis [16]): 3.8%; inhibition at 1500 g/ha (Medicago sativa [17]): 0% |
| CCOCCOC(=O)/C(C#N)=C(/CC)NNc1cccc(Cl)c1Cl | 26.8 | 15.6 | 69.4 | 5.4 | 0 | 13.9 | 24.2 | 5.9 | 24.9 | 50 | 65.3 | 4.3 | -12.7 | 20 | 21.2 | 12.1 | 55.3 | 3.3 | 11.6 | 14.4 | inhibition at 1500 g/ha (Digitaria sanguinalis [16]): 0%; inhibition at 1500 g/ha (Medicago sativa [17]): 0% |
| CCOCCOC(=O)c1c(C(C)C)nn(-c2ccc(Cl)cc2Cl)c1N | 4.4 | 0 | 56.8 | 0 | 0 | 30.9 | 44.1 | 0 | 4.2 | 11.8 | 9.3 | 0 | -2.4 | 28 | 4.4 | 0 | 45.6 | 16.6 | 5.5 | 26.7 | inhibition at 1500 g/ha (Digitaria sanguinalis [16]): 0%; inhibition at 1500 g/ha (Medicago sativa [17]): 0% |
| CCOCCOC(=O)/C(C#N)=C(/CC)NNc1ccc(Cl)cc1Cl | 0 | 18 | 57.2 | 0 | 0 | 38.9 | 51.5 | 0 | 0 | 0 | 76 | 0 | -5.2 | 40 | 0 | 0 | 0 | 0 | 0 | 28.6 | inhibition at 1500 g/ha (Digitaria sanguinalis [16]): 0%; inhibition at 1500 g/ha (Medicago sativa [17]): 0% |
| CCOCCOC(=O)/C(C#N)=C(\NNc1cc(Cl)c(Cl)cc1Cl)C(C)C | 23.4 | 20.3 | 81.1 | 0 | 0 | 16.7 | 18.2 | 5.9 | 0 | 1.5 | 26.7 | 5 | -1.5 | 10 | 7.1 | 0 | 96.9 | 3.7 | 0 | 14.4 | inhibition at 1500 g/ha (Digitaria sanguinalis [16]): 0%; inhibition at 1500 g/ha (Medicago sativa [17]): 0% |
| CCOCCOC(=O)c1c(SC)nn(-c2ccc(Cl)cc2Cl)c1N | 8.4 | 0 | 56.1 | 0 | 30 | 32.7 | 47.1 | 0 | 0 | 16.9 | 46.7 | 0 | 17.8 | 16 | 4.3 | 0 | 46.7 | 0 | 0 | 42.2 | inhibition at 1500 g/ha (Digitaria sanguinalis [16]): 0%; inhibition at 1500 g/ha (Medicago sativa [17]): 0% |
| CCOCCOC(=O)/C(C#N)=C(\NNc1cccc(Cl)c1Cl)C(C)C | 28.7 | 22.7 | 48.8 | 16.1 | 0 | 25 | 36.4 | 0 | 19 | 36.2 | 66.7 | 0.2 | 72.9 | 35 | 24.3 | 15.1 | 49.1 | 5.1 | 14.7 | 14.4 | inhibition at 1500 g/ha (Digitaria sanguinalis [16]): 0%; inhibition at 1500 g/ha (Medicago sativa [17]): 0% |
| CCOCCOC(=O)c1c(SC)nn(-c2ccc(C)cc2C)c1N | 21 | 0 | 43.5 | 0 | 0 | 10.9 | 35.3 | 0 | 0 | 49.9 | 9.3 | 24.1 | 42.2 | 8 | 9.4 | 0 | 32.9 | 0 | 0 | 46.7 | inhibition at 1500 g/ha (Digitaria sanguinalis [16]): 0%; inhibition at 1500 g/ha (Medicago sativa [17]): 0% |
| CCOCCOC(=O)c1c(C(C)C)nn(-c2ccc([N+](=O)[O-])cc2)c1N | 9 | 0 | 10 | 0 | 0 | 40 | 44.1 | 0 | 10.7 | 27.8 | 46.7 | 0 | 21.9 | 16 | 0 | 6.2 | 48.6 | 0 | 0 | 46.7 | inhibition at 1500 g/ha (Digitaria sanguinalis [16]): 0%; inhibition at 1500 g/ha (Medicago sativa [17]): 0% |
